Data from US10829481B2, “Benzimidazole derivatives as modulators of ROR-gamma” (Vitae Pharmaceuticals, LLC, priority 2016, dated 2020).

Columns and labels:
[1] = molecular target: recombinant RORγ Ligand Binding Domain (LBD) protein (Homo sapiens (Human), UniProt P51449); assay: Radio-Ligand RORγ Binding Assay (Assay 1); details: competition with 25-hydroxy [26,27-3H]-cholesterol, SPA
Protocol: Radio-Ligand RORγ Binding Assay (Assay 1)
Compounds described herein were tested for ability to bind to RORγ in a cell-free competition assay with commercially available radio-ligand (RL), 25-hydroxy [26,27-^3H]-cholesterol (PerkinElmer, Cat. #NET674250UC), for a ligand binding site on a recombinant RORγ Ligand Binding Domain (LBD) protein expressed as a 6×His-Glutathione-S-Transferase (GST) fusion. The assay was performed in 96-well SPA plates (PerkinElmer, Cat. #1450-401) in 50 mM HEPES buffer, pH 7.4, containing 150 mM NaCl, 5 mM MgCl2, 10% (v/v) glycerol, 2 mM CHAPS, 0.5 mM β-octylglucopyranoside and 5 mM DTT. Tested compounds were dissolved in DMSO, and semi-log (3.162×) serial dilutions of the compounds were prepared in the same solvent. Two μL of the DMSO solutions were mixed with 28 μL of 8.6 nM 25-hydroxy [26,27-^3H]-cholesterol and 50 μL of 24 nM RORγ LBD. The plate was shaken at 700 rpm for 20 min and incubated for 10 min at rt, after which 40 μL of poly-Lys YSi SPA beads (PerkinElmer, Cat. #RPNQ0010) were added to achieve […] of the beads per well. The plate was incubated on an orbital shaker for 20 min and then for 10 min without agitation at rt. SPA signal for tritium beta radiation was registered on PerkinElmer Microbeta plate reader. […] The percent inhibition vs. concentration data were fit into a four-parameter model, and IC50 values were calculated from the fit as the concentrations corresponding to the inflection points on the dose-response curves. Inhibitory constants (Ki) were calculated using the following equation, where [RL] is the concentration in the assay and KD is a dissociation constant of 25-hydroxy [26,27-^3H]-cholesterol: […]

[2] = molecular target: full-length RORγt in Jurkat cells (Homo sapiens (Human), UniProt P51449); assay: RORγt 5×RORE Assay in Jurkat Cells (Assay 2); format: cell-based; details: 5×RORE Nanoluc luciferase reporter
Protocol: RORγt 5×RORE Assay in Jurkat Cells (Assay 2)
Compounds described herein were tested for RORγ inverse agonist activity in a cell-based, transcriptional activity assay. Secreted Nanoluc® luciferase was used as a reporter for transcriptional activity of the full-length RORγt in Jurkat cells (ATCC, Cat. #TIB-152). […] (Promega, Cat. #N1021) using KpnI and HindIII restriction sites. […] After 5-6 hrs of incubation at 37° C./5% CO2, the cells were collected, resuspended in phenol-red free RPMI media containing 10% (v/v) delipidated FBS (Hyclone, Cat. #SH30855.03) and dispensed into 96-well clear bottom tissue culture plates (CoStar, Cat. #3603), at 80,000 cells per well. Tested compounds were added to the cells in the same media (final concentration of DMSO was 0.1% (v/v)), and the plates were incubated at 37° C./5% CO2 for 16-18 hrs. Luciferase activity in the conditioned supernatants was determined with NanoGlo® assay reagents (Promega, Cat. #N1130).

full-length RORγt in Jurkat cells, sequence (P51449 other isoform, or with tags, fused parts or gaps): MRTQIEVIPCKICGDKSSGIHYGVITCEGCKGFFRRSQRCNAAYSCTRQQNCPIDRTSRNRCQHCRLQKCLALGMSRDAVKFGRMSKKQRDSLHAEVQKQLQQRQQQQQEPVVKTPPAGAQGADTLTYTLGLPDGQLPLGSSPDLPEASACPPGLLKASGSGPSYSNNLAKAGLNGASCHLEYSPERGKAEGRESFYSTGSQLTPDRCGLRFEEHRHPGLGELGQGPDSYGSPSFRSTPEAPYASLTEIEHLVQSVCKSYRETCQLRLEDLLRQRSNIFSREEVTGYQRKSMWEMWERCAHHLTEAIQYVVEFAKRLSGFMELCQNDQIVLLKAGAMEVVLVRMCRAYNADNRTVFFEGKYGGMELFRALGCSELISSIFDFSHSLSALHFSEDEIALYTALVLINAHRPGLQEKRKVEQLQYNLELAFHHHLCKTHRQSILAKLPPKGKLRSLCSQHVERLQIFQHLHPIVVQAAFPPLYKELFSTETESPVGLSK
recombinant RORγ Ligand Binding Domain (LBD) protein, sequence (P51449 269-508): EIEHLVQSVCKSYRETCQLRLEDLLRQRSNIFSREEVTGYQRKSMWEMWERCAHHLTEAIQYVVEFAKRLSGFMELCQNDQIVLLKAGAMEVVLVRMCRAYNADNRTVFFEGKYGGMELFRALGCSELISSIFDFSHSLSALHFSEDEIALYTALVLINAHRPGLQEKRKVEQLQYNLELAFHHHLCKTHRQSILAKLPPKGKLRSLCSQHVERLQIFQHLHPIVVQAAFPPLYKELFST

Compound	Ki [1] [µM]	IC50 [2] [µM]
1-((2,2-difluorobenzo[d][1,3]dioxol-4-yl)methyl)-2-(difluoromethyl)-N-(4-((2-hydroxyethyl)sulfonyl)benzyl)-1H-benzo[d]imidazole-5-carboxamide [I-44]	< 0.1	< 0.1
1-((2,2-difluorobenzo[d][1,3]dioxol-4-yl)methyl)-N-((R)-1-(4-(ethylsulfonyl)phenyl)-2-hydroxyethyl)-2-((R)-tetrahydrofuran-2-yl)-1H-benzo[d]imidazole-5-carboxamide [I-15]	< 0.1	< 0.1
2-cyclopropyl-N-(4-(ethylsulfonyl)benzyl)-1-((6-oxo-1-(2,2,2-trifluoroethyl)-1,6-dihydropyridin-3-yl)methyl)-1H-benzo[d]imidazole-5-carboxamide [I-117]	> 1	–
CCOC(=O)Cc1ccc(CC(=O)Nc2ccc3c(c2)nc(C(F)(F)F)n3Cc2cccc3c2OC(F)(F)O3)cc1 [I-7, ethyl 2-(4-(2-((1-((2,2-difluorobenzo[d][1,3]dioxol-4-yl)methyl)-2-(trifluoromethyl)-1H-benzo[d]imidazol-5-yl)amino)-2-oxoethyl)phenyl)acetate]	0.1 to 1	–
CCS(=O)(=O)c1ccc([C@H](CO)NC(=O)c2ccc3c(c2)nc(C2CC2)n3Cc2cccc3c2OC(F)(F)O3)cc1 [I-12, (R)-2-cyclopropyl-1-((2,2-difluorobenzo[d][1,3]dioxol-4-yl)methyl)-N-(1-(4-(ethylsulfonyl)phenyl)-2-hydroxyethyl)-1H-benzo[d]imidazole-5-carboxamide]	–	< 0.1
CCS(=O)(=O)c1ccc([C@H](CO)NC(=O)c2ccc3c(c2)nc(C2(F)CCC2)n3Cc2cccc3c2OC(F)(F)O3)cc1 [I-19, (R)-1-((2,2-difluorobenzo[d][1,3]dioxol-4-yl)methyl)-N-(1-(4-(ethylsulfonyl)phenyl)-2-hydroxyethyl)-2-(1-fluorocyclobutyl)-1H-benzo[d]imidazole-5-carboxamide]	–	< 0.1
CCS(=O)(=O)c1ccc(CNC(=O)c2ccc3c(c2)nc([C@H]2C[C@H]2C#N)n3Cc2cccc3c2OC(F)(F)O3)cc1 [I-56, 2-((1S,2R)-2-cyanocyclopropyl)-1-((2,2-difluorobenzo[d][1,3]dioxol-4-yl)methyl)-N-(4-(ethylsulfonyl)benzyl)-1H-benzo[d]imidazole-5-carboxamide]	0.1 to 1	–
CCS(=O)(=O)c1ccc(CNC(=O)c2ccc3c(c2)nc(C(F)(F)F)n3Cc2nnc3n2CCC3)cc1 [I-86, 1-((6,7-dihydro-5H-pyrrolo[2,1-c][1,2,4]triazol-3-yl)methyl)-N-(4-(ethylsulfonyl)benzyl)-2-(trifluoromethyl)-1H-benzo[d]imidazole-5-carboxamide]	> 1	–
CCS(=O)(=O)c1ccc(CNC(=O)c2ccc3c(c2)nc(C2CC2)n3C[C@H]2CCN(C(=O)OC(C)(C)C)C2)cc1 [I-107, tert-butyl (R)-3-((2-cyclopropyl-5-((4-(ethylsulfonyl)benzyl)carbamoyl)-1H-benzo[d]imidazol-1-yl)methyl)pyrrolidine-1-carboxylate]	> 1	–
CCS(=O)(=O)c1ccc(CNC(=O)c2ccc3c(c2)nc(C2CC2)n3C[C@H]2CCCN2C(=O)OC(C)(C)C)cc1 [I-108, tert-butyl (R)-2-((2-cyclopropyl-5-((4-(ethylsulfonyl)benzyl)carbamoyl)-1H-benzo[d]imidazol-1-yl)methyl)pyrrolidine-1-carboxylate]	> 1	–
CCS(=O)(=O)c1ccc(CNC(=O)c2ccc3c(c2)nc(C2CC2)n3Cc2cnn(CC(F)(F)F)c2)cc1 [I-111, 2-cyclopropyl-N-(4-(ethylsulfonyl)benzyl)-1-((1-(2,2,2-trifluoroethyl)-1H-pyrazol-4-yl)methyl)-1H-benzo[d]imidazole-5-carboxamide]	> 1	–
CCS(=O)(=O)c1ccc(CNC(=O)c2ccc3c(c2)nc(C2CC2)n3Cc2cccc(C#N)c2)cc1 [I-112, 1-(3-cyanobenzyl)-2-cyclopropyl-N-(4-(ethylsulfonyl)benzyl)-1H-benzo[d]imidazole-5-carboxamide]	0.1 to 1	–
CCS(=O)(=O)c1ccc(CNC(=O)c2ccc3c(c2)nc(C2CC2)n3Cc2ccn(CC(F)(F)F)n2)cc1 [I-114, 2-cyclopropyl-N-(4-(ethylsulfonyl)benzyl)-1-((1-(2,2,2-trifluoroethyl)-1H-pyrazol-3-yl)methyl)-1H-benzo[d]imidazole-5-carboxamide]	> 1	–
CCS(=O)(=O)c1ccc([C@@H](CO)NC(=O)c2ccc3c(c2)nc(C2CC2)n3Cc2cccc3c2OC(F)(F)O3)nc1 [I-133.2, (S)-2-cyclopropyl-1-((2,2-difluorobenzo[d][1,3]dioxol-4-yl)methyl)-N-(1-(5-(ethylsulfonyl)pyridin-2-yl)-2-hydroxyethyl)-1H-benzo[d]imidazole-5-carboxamide]	0.1 to 1	–
CS(=O)(=O)c1ccc([C@H](CO)NC(=O)c2ccc3c(c2)nc(C(F)(F)F)n3Cc2cccc3c2OC(F)(F)O3)nc1 [I-135, (R)-1-((2,2-difluorobenzo[d][1,3]dioxol-4-yl)methyl)-N-(2-hydroxy-1-(5-(methylsulfonyl)pyridin-2-yl)ethyl)-2-(trifluoromethyl)-1H-benzo[d]imidazole-5-carboxamide]	0.1 to 1	–
CCS(=O)(=O)c1ccc(CNC(=O)c2ccc3c(c2)nc(C(F)(F)F)n3CC2CCN(C(=O)OC(C)(C)C)CC2)cc1 [I-145, tert-butyl 4-((5-((4-(ethylsulfonyl)benzyl)carbamoyl)-2-(trifluoromethyl)-1H-benzo[d]imidazol-1-yl)methyl)piperidine-1-carboxylate]	0.1 to 1	–
CCS(=O)(=O)c1ccc(CNC(=O)c2ccc3c(c2)nc(C(F)(F)F)n3Cc2cccn(C)c2=O)cc1 [I-146, N-(4-(ethylsulfonyl)benzyl)-1-((1-methyl-2-oxo-1,2-dihydropyridin-3-yl)methyl)-2-(trifluoromethyl)-1H-benzo[d]imidazole-5-carboxamide]	0.1 to 1	–
CCS(=O)(=O)c1ccc(CNC(=O)c2ccc3c(c2)nc(C2CC2)n3C[C@H]2CCN(CC(F)(F)F)C2)cc1 [I-156, (S)-2-cyclopropyl-N-(4-(ethylsulfonyl)benzyl)-1-((1-(2,2,2-trifluoroethyl)pyrrolidin-3-yl)methyl)-1H-benzo[d]imidazole-5-carboxamide]	> 1	–
CCS(=O)(=O)c1ccc(CNC(=O)c2ccc3c(c2)nc(C2CC2)n3C[C@H]2CCCN2CC(F)(F)F)cc1 [I-157, (R)-2-cyclopropyl-N-(4-(ethylsulfonyl)benzyl)-1-((1-(2,2,2-trifluoroethyl)pyrrolidin-2-yl)methyl)-1H-benzo[d]imidazole-5-carboxamide]	> 1	–
CCS(=O)(=O)c1ccc(CNC(=O)c2ccc3c(c2)nc(C2CC2)n3C[C@H]2CCN(c3ncc(F)cn3)C2)cc1 [I-159, (R)-2-cyclopropyl-N-(4-(ethylsulfonyl)benzyl)-1-((1-(5-fluoropyrimidin-2-yl)pyrrolidin-3-yl)methyl)-1H-benzo[d]imidazole-5-carboxamide]	> 1	–
CCS(=O)(=O)c1ccc(CNC(=O)c2ccc3c(c2)nc(C(F)(F)F)n3Cc2cccc3c2OC(F)(F)O3)[n+]([O-])c1 [I-161, 2-((1-((2,2-difluorobenzo[d][1,3]dioxol-4-yl)methyl)-2-(trifluoromethyl)-1H-benzo[d]imidazole-5-carboxamido)methyl)-5-(ethylsulfonyl)pyridine 1-oxide]	–	< 0.1
CN1CCN(S(C)(=O)=O)CCC1CNC(=O)c1ccc2c(c1)nc(C(F)(F)F)n2Cc1cccc2c1OC(F)(F)O2 (stereo not shown) [I-171, 1-((2,2-difluorobenzo[d][1,3]dioxol-4-yl)methyl)-N-((4-methyl-1-(methylsulfonyl)-1,4-diazepan-5-yl)methyl)-2-(trifluoromethyl)-1H-benzo[d]imidazole-5-carboxamide]	0.1 to 1	–
CCS(=O)(=O)c1ccc(C(CO)(CO)NC(=O)c2ccc3c(c2)nc(C(F)(F)F)n3Cc2cccc3c2OC(F)(F)O3)cc1 [I-174, 1-((2,2-difluorobenzo[d][1,3]dioxol-4-yl)methyl)-N-(2-(4-(ethylsulfonyl)phenyl)-1,3-dihydroxypropan-2-yl)-2-(trifluoromethyl)-1H-benzo[d]imidazole-5-carboxamide]	< 0.1	–
